Data as given in ChEMBL document CHEMBL1142415, “5-tert-butyl-N-pyrazol-4-yl-4,5,6,7-tetrahydrobenzo[d]isoxazole-3-carboxamide derivatives as novel potent inhibitors of Mycobacterium tuberculosis pantothenate synthetase: initiating a quest for new antitubercular drugs” (J Med Chem, 2008).

How the values were obtained:
[1] = target: T1, Pantothenate synthetase (Mycobacterium tuberculosis) (UniProt P9WIL5); assay: Inhibition of Mycobacterium tuberculosis pantothenate synthetase at 100 uM
T1 sequence (whole entry): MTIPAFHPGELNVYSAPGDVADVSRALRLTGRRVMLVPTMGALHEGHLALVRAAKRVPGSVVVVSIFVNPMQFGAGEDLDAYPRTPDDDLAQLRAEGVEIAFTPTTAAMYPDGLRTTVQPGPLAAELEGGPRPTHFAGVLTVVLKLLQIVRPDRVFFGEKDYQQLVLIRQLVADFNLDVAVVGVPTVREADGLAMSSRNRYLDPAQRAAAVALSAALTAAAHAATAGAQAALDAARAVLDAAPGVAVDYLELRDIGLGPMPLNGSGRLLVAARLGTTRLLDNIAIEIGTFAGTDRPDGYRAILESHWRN

[2] = target: T2, Pantothenate synthetase (Mycobacterium tuberculosis, UniProt P9WIL5); assay: Inhibition of Mycobacterium tuberculosis pantothenate synthetase
T2 sequence (P9WIL5 whole entry): T1 sequence (whole entry)

[3] = system: Mycobacterium tuberculosis; assay: Antibacterial activity against Mycobacterium tuberculosis at 128 uM by MABA assay; assay type: functional
[4] = system: Mycobacterium tuberculosis; assay: Antibacterial activity against Mycobacterium tuberculosis at 128 uM by LORA assay; assay type: functional

CC(C)(C)C1CCc2onc(C(=O)Nc3cnn(Cc4ccc(C(=O)O)cc4)c3)c2C1 (centres undefined)
inhibition [1]: 99% | IC50 [2]: 460 nM | inhibition at 128 µM [3]: 41% | inhibition at 128 µM [4]: 2%

CC(C)(C)C1CCc2onc(C(=O)O)c2C1 (centres undefined)
inhibition [1]: 12% | inhibition at 128 µM [3]: 5% | inhibition at 128 µM [4]: 11%

CC(C)(C)C1CCc2onc(C(=O)Nc3cnn(Cc4ccc(Cl)cc4)c3)c2C1 (centres undefined)
inhibition [1]: 98% | IC50 [2]: 140 nM

CC(C)(C)C1CCc2onc(C(=O)Nc3cnn(Cc4ccc5ccccc5c4)c3)c2C1 (centres undefined)
inhibition [1]: 97% | IC50 [2]: 90 nM | inhibition at 128 µM [3]: 43%

CC(C)(C)C1CCc2onc(C(=O)Nc3cnn(Cc4ccc(F)cc4)c3)c2C1 (centres undefined)
inhibition [1]: 98% | IC50 [2]: 150 nM | inhibition at 128 µM [3]: 0% | inhibition at 128 µM [4]: 0%

CC(C)(C)C1CCc2onc(C(=O)Nc3cnn(Cc4ccccc4Br)c3)c2C1 (centres undefined)
inhibition [1]: 94% | IC50 [2]: 140 nM | inhibition at 128 µM [3]: 73% | inhibition at 128 µM [4]: 24%

COC(=O)c1ccc(Cn2cc(NC(=O)c3noc4c3CC(C(C)(C)C)CC4)cn2)cc1 (centres undefined)
inhibition [1]: 100% | IC50 [2]: 160 nM | inhibition at 128 µM [3]: 48% | inhibition at 128 µM [4]: 0%

Cc1ccccc1Cn1cc(NC(=O)c2noc3c2CC(C(C)(C)C)CC3)cn1 (centres undefined)
inhibition [1]: 89% | IC50 [2]: 120 nM | inhibition at 128 µM [3]: 46% | inhibition at 128 µM [4]: 15%

CC(C)(C)C1CCc2onc(C(=O)Nc3cn[nH]c3)c2C1 (centres undefined)
inhibition [1]: 43% | IC50 [2]: 61000 nM | inhibition at 128 µM [3]: 60% | inhibition at 128 µM [4]: 4%

CC(C)(C)C1CCc2onc(C(=O)Nc3cnn(Cc4ccc(C(=O)NCCc5ccccc5)cc4)c3)c2C1 (centres undefined)
inhibition [1]: 78% | IC50 [2]: 140 nM | inhibition at 128 µM [3]: 19% | inhibition at 128 µM [4]: 11%

CC(C)(C)C1CCc2onc(C(=O)Nc3cnn(Cc4ccc(C(=O)NCc5ccccc5)cc4)c3)c2C1 (centres undefined)
inhibition [1]: 82% | IC50 [2]: 210 nM | inhibition at 128 µM [3]: 54% | inhibition at 128 µM [4]: 46%

O=C(Nc1cnn(Cc2ccc(Cl)cc2Cl)c1)c1noc2c1CCCC2
inhibition [1]: 18% | inhibition at 128 µM [3]: 70% | inhibition at 128 µM [4]: 53%

CC(C)(C)OC(=O)c1ccc(Cn2cc(NC(=O)c3noc4c3CC(C(C)(C)C)CC4)cn2)cc1 (centres undefined)
inhibition [1]: 79% | IC50 [2]: 250 nM

CC(C)(C)C1CCc2onc(C(=O)Nc3cnn(Cc4ccccc4I)c3)c2C1 (centres undefined)
inhibition [1]: 84% | IC50 [2]: 160 nM | inhibition at 128 µM [3]: 70% | inhibition at 128 µM [4]: 12%

CC(C)(C)C1CCc2onc(C(=O)Nc3cnn(Cc4ccc(F)cc4F)c3)c2C1 (centres undefined)
inhibition [1]: 100% | IC50 [2]: 130 nM | inhibition at 128 µM [3]: 56% | inhibition at 128 µM [4]: 47%

COc1ccc(Cc2noc(NC(=O)c3noc4c3CC(C(C)(C)C)CC4)c2C(N)=O)cc1 (centres undefined)
inhibition [1]: 79% | IC50 [2]: 7130 nM | inhibition at 128 µM [3]: 14% | inhibition at 128 µM [4]: 14%

CC(C)(C)C1CCc2onc(C(=O)Nc3cnn(Cc4ccccc4)c3)c2C1 (centres undefined)
inhibition [1]: 100% | IC50 [2]: 97 nM | inhibition at 128 µM [3]: 84% | inhibition at 128 µM [4]: 62%

CC(C)(C)C1CCc2onc(C(=O)Nc3cnn(C(=O)c4c(Cl)cc(Cl)cc4Cl)c3)c2C1 (centres undefined)
inhibition [1]: 17% | inhibition at 128 µM [3]: 34% | inhibition at 128 µM [4]: 26%
